# Assay results reported in patent US20230398130A1, “METHODS AND COMPOSITIONS FOR DIFFERENTIATING STEM CELLS” (Massachusetts Institute of Technology, priority 2020, published 2023).
# Assays:
# ISC-enriched organoids [1] = assay: Primary screen, 384-well 2.5-D organoid differentiation (ENR+CD, 6 days): basal lysozyme secretion (LYZ.NS); format: cell-based, murine; conditions: for Dose.FC.LYZ.NS: FC vs plate median; for SSMD.LYZ.NS: strictly standardized mean difference
# Source text: (§1) High-throughput screening.
# ISC-enriched organoids [2] = assay: Primary screen, 384-well 2.5-D organoid differentiation (ENR+CD, 6 days, Target Selective Inhibitor Library, vs whole-plate median): ATP (CellTiter-Glo 3D, CTG); conditions: for Dose.FC.CTG: FC vs plate median; for SSMD.CTG: strictly standardized mean difference
# ISC-enriched organoids [3] = assay: Primary screen, 384-well 2.5-D organoid differentiation (ENR+CD, 6 days): carbachol-induced lysozyme secretion (LYZ.S); format: cell-based, murine; conditions: primary screen; for Dose.FC.LYZ.S: FC vs plate median; for Z.LYZ.S: standard z score; for SSMD.LYZ.S: strictly standardized mean difference
# Source text: as §1
# [4] = Dose 0.08 uM, standard z score of FC
# [5] = Dose 0.40 uM, standard z score of FC
# [6] = Dose 2.00 uM, standard z score of FC
# [7] = Dose 10.00 uM, standard z score of FC
# [8] = Dose 0.08 uM, primary screen, standard z score
# [9] = Dose 0.40 uM, primary screen, standard z score
# [10] = Dose 2.00 uM, primary screen, standard z score
# [11] = Dose 10.00 uM, primary screen, standard z score
# [12] = primary screen, 1st of the 4 dose lines of the treatment (dose not given)
# [13] = primary screen, 2nd of the 4 dose lines of the treatment (dose not given)
# [14] = primary screen, 3rd of the 4 dose lines of the treatment (dose not given)
# [15] = primary screen, 4th of the 4 dose lines of the treatment (dose not given)
# [16] = 1st of the 4 dose lines of the treatment (dose not given)
# [17] = 2nd of the 4 dose lines of the treatment (dose not given)
# [18] = 3rd of the 4 dose lines of the treatment (dose not given)
# [19] = 4th of the 4 dose lines of the treatment (dose not given)
Structure (SMILES),"Dose.FC.LYZ.NS (ISC-enriched organoids [1]; Dose 0.08 uM, primary screen) [log 2 fold change]","Dose.FC.LYZ.NS (ISC-enriched organoids [1]; Dose 0.40 uM, primary screen) [log 2 fold change]","Dose.FC.LYZ.NS (ISC-enriched organoids [1]; Dose 2.00 uM, primary screen) [log 2 fold change]","Dose.FC.LYZ.NS (ISC-enriched organoids [1]; Dose 10.00 uM, primary screen) [log 2 fold change]","Dose.FC.CTG (ISC-enriched organoids [2]; Dose 0.08 uM, primary screen) [log 2 fold change]","Dose.FC.CTG (ISC-enriched organoids [2]; Dose 0.40 uM, primary screen) [log 2 fold change]","Dose.FC.CTG (ISC-enriched organoids [2]; Dose 2.00 uM, primary screen) [log 2 fold change]","Dose.FC.CTG (ISC-enriched organoids [2]; Dose 10.00 uM, primary screen) [log 2 fold change]",Dose.FC.LYZ.S (ISC-enriched organoids [3]; Dose 0.08 uM) [log 2 fold change],Dose.FC.LYZ.S (ISC-enriched organoids [3]; Dose 0.40 uM) [log 2 fold change],Dose.FC.LYZ.S (ISC-enriched organoids [3]; Dose 2.00 uM) [log 2 fold change],Dose.FC.LYZ.S (ISC-enriched organoids [3]; Dose 10.00 uM) [log 2 fold change],Z.LYZ.NS (ISC-enriched organoids [1]; [8]),Z.LYZ.NS (ISC-enriched organoids [1]; [9]),Z.LYZ.NS (ISC-enriched organoids [1]; [10]),Z.LYZ.NS (ISC-enriched organoids [1]; [11]),Z.CTG (ISC-enriched organoids [2]; [8]),Z.CTG (ISC-enriched organoids [2]; [9]),Z.CTG (ISC-enriched organoids [2]; [10]),Z.CTG (ISC-enriched organoids [2]; [11]),further results
CC(=O)c1c(C)c2cnc(Nc3ccc(N4CCNCC4)cn3)nc2n(C2CCCC2)c1=O.Cl [Palbociclib (PD-0332991) HCl],−0.006,−0.029,−0.051,−0.132,0.169,−0.350,−0.083,−0.677,0.004,−0.042,−0.122,−0.203,–,–,–,–,–,–,–,–,Z.LYZ.NS (ISC-enriched organoids [1]; [4]): −0.055; Z.LYZ.NS (ISC-enriched organoids [1]; [5]): −0.248; Z.LYZ.NS (ISC-enriched organoids [1]; [6]): −0.440; Z.LYZ.NS (ISC-enriched organoids [1]; [7]): −1.150; Z.CTG (ISC-enriched organoids [2]; [4]): 0.404; Z.CTG (ISC-enriched organoids [2]; [5]): −0.836; Z.CTG (ISC-enriched organoids [2]; [6]): −0.199; Z.CTG (ISC-enriched organoids [2]; [7]): −1.617
Fc1cc(F)c2c(c1)[C@H]1C=CC[C@H]1C(c1cccnc1)N2 (mixture of isomers) [Golgicide A],0.267,0.066,0.171,−0.161,0.167,0.227,0.339,−0.220,0.146,0.202,0.076,−0.256,2.325,0.576,1.492,−1.402,0.398,0.541,0.810,−0.526,–
CCCCc1nc(Cl)c(CO)n1Cc1ccc(-c2ccccc2-c2nnn[n-]2)cc1.[K+] [Losartan Potassium (DuP 753)],0.052,0.038,−0.042,0.062,−0.152,−0.175,−0.081,−0.137,−0.017,0.027,−0.080,−0.025,0.449,0.329,−0.362,0.540,−0.362,−0.418,−0.193,−0.328,SSMD.LYZ.NS (ISC-enriched organoids [1]; [12]): 0.273; SSMD.LYZ.NS (ISC-enriched organoids [1]; [13]): 0.263; SSMD.LYZ.NS (ISC-enriched organoids [1]; [14]): −0.341; SSMD.LYZ.NS (ISC-enriched organoids [1]; [15]): 0.423; SSMD.CTG (ISC-enriched organoids [2]; [12]): −0.338; SSMD.CTG (ISC-enriched organoids [2]; [13]): −0.304; SSMD.CTG (ISC-enriched organoids [2]; [14]): −0.274; SSMD.CTG (ISC-enriched organoids [2]; [15]): −0.390; Z.LYZ.S (ISC-enriched organoids [3]; [16]): −0.112; Z.LYZ.S (ISC-enriched organoids [3]; [17]): 0.173; Z.LYZ.S (ISC-enriched organoids [3]; [18]): −0.519; Z.LYZ.S (ISC-enriched organoids [3]; [19]): −0.164; SSMD.LYZ.S (ISC-enriched organoids [3]; [16]): −0.104; SSMD.LYZ.S (ISC-enriched organoids [3]; [17]): 0.194; SSMD.LYZ.S (ISC-enriched organoids [3]; [18]): −0.616; SSMD.LYZ.S (ISC-enriched organoids [3]; [19]): −0.185
